{"source": "patent US9849130B2", "about": "(KamTek, Inc., priority 2014, dated 2017)", "key": {"Enterococci faecium": {"test_system": "Enterococci faecium", "assay": "MIC by microdilution in Mueller-Hinton broth against Enterococci faecium strains", "format": "cell-based, Enterococcus faecium", "conditions": "Mueller-Hinton broth"}, "Bacteroides Strains": {"test_system": "Bacteroides Strains", "assay": "MIC by microdilution in Brucella broth against Bacteroides strains", "format": "cell-based, Bacteroides spp."}, "Escherichia coli strains": {"test_system": "Escherichia coli strains", "assay": "MIC by microdilution in Mueller-Hinton broth against Escherichia coli strains", "format": "cell-based", "conditions": "for MIC: Mueller-Hinton broth"}, "[1]": {"test_system": "Staphylococcus aureus strains", "assay": "MIC by microdilution in Mueller-Hinton broth against Staphylococcus aureus strains", "format": "cell-based"}, "Fusobacterium": {"test_system": "Fusobacterium", "assay": "MIC by microdilution in Brucella broth against Fusobacterium", "format": "cell-based, Fusobacterium spp.", "conditions": "Brucella broth"}, "C. perfringens MH310": {"test_system": "C. perfringens MH310", "assay": "microbe, parasite or virus in culture", "format": "cell-based", "conditions": "C. perfringens MH310"}, "[2]": {"test_system": "Lachnospiraceae and related bacterial strains", "assay": "MIC against Lachnospiraceae and related bacterial strains", "format": "cell-based, Lachnospiraceae spp.", "conditions": "broth microdilution, brucella broth"}, "Lactobacillus strains": {"test_system": "Lactobacillus strains", "assay": "MIC against Lactobacillus strains", "format": "cell-based, Lactobacillus spp.", "conditions": "broth microdilution, BHI with 0.02% Tween 80, pH 6.0"}, "Enterococcus faecalis": {"test_system": "Enterococcus faecalis", "assay": "MIC by microdilution in Mueller-Hinton broth against Enterococcus faecalis strains", "format": "cell-based"}}}
{"smiles": "CCN=c1cc2n(-c3ccc(Cl)cc3)c3ccccc3nc-2cc1Nc1ccc(Cl)cc1", "note": "[B746]", "values": [{"measurement": "MIC", "setting": "Enterococci faecium; E. faecium NR 31903", "result": 2, "unit": "µg/mL"}, {"measurement": "MIC", "setting": "Enterococci faecium; E. faecium NR 31909", "result": 2, "unit": "µg/mL"}, {"measurement": "MIC", "setting": "Enterococci faecium; E. faecium NR 31912", "result": 2, "unit": "µg/mL"}, {"measurement": "MIC", "setting": "Enterococci faecium; E. faecium NR 31915", "result": 2, "unit": "µg/mL"}, {"measurement": "MIC", "setting": "Enterococci faecium; E. faecium NR 31916", "result": 2, "unit": "µg/mL"}, {"measurement": "MIC", "setting": "Bacteroides Strains; B. caccae HM728", "result": 1, "unit": "µg/mL"}, {"measurement": "MIC", "setting": "Bacteroides Strains; B. eggerthii HM210", "result": 2, "unit": "µg/mL"}, {"measurement": "MIC", "setting": "Bacteroides Strains; B. fragilis HM709", "result": 4, "unit": "µg/mL"}, {"measurement": "MIC", "setting": "Bacteroides Strains; B. fragilis HM710", "result": 2, "unit": "µg/mL"}, {"measurement": "MIC", "setting": "Bacteroides Strains; B. fragilis HM714", "result": 4, "unit": "µg/mL"}, {"measurement": "MIC", "setting": "Bacteroides Strains; B. ovatus HM222", "result": 0.25, "unit": "µg/mL"}, {"measurement": "MIC", "setting": "Bacteroides Strains; B. spp. HM18", "result": 1, "unit": "µg/mL"}, {"measurement": "MIC", "setting": "Bacteroides Strains; B. spp. HM19", "result": 2, "unit": "µg/mL"}, {"measurement": "MIC", "setting": "Bacteroides Strains; B. spp. HM20", "result": 1, "unit": "µg/mL"}, {"measurement": "MIC", "setting": "Bacteroides Strains; B. spp. HM22", "result": 1, "unit": "µg/mL"}, {"measurement": "MIC", "setting": "Bacteroides Strains; B. spp. HM23", "result": 2, "unit": "µg/mL"}, {"measurement": "MIC", "setting": "Bacteroides Strains; B. spp. HM27", "result": 1, "unit": "µg/mL"}, {"measurement": "MIC", "setting": "Bacteroides Strains; B. spp. HM28", "result": 2, "unit": "µg/mL"}, {"measurement": "MIC", "setting": "Bacteroides Strains; B. spp. HM58", "result": 1, "unit": "µg/mL"}, {"measurement": "MIC", "setting": "Bacteroides Strains; B. stercoris HM1036", "result": 1, "unit": "µg/mL"}, {"measurement": "activity against E. coli (in words)", "setting": "Escherichia coli strains", "result": "relatively inactive"}, {"measurement": "MIC", "setting": "Escherichia coli strains; Escherichia coli strain NR 6", "result": ">32", "unit": "µg/mL"}, {"measurement": "MIC", "setting": "Escherichia coli strains; Escherichia coli strain NR 8", "result": ">32", "unit": "µg/mL"}, {"measurement": "MIC", "setting": "Escherichia coli strains; Escherichia coli strain NR 96", "result": ">32", "unit": "µg/mL"}, {"measurement": "MIC", "setting": "Escherichia coli strains; Escherichia coli strain NR 104", "result": ">32", "unit": "µg/mL"}, {"measurement": "MIC", "setting": "Escherichia coli strains; Escherichia coli strain NR 17626", "result": ">32", "unit": "µg/mL"}, {"measurement": "MIC", "setting": "Escherichia coli strains; Escherichia coli strain NR 17627", "result": ">32", "unit": "µg/mL"}, {"measurement": "MIC", "setting": "Escherichia coli strains; Escherichia coli strain NR 17633", "result": ">32", "unit": "µg/mL"}, {"measurement": "MIC", "setting": "Escherichia coli strains; Escherichia coli strain NR 17647", "result": ">32", "unit": "µg/mL"}, {"measurement": "MIC", "setting": "Escherichia coli strains; Escherichia coli strain NR 17650", "result": ">32", "unit": "µg/mL"}, {"measurement": "MIC", "setting": "Escherichia coli strains; Escherichia coli strain NR 17661", "result": ">32", "unit": "µg/mL"}, {"measurement": "MIC", "setting": "[1]; Staphylococcus aureus strain NR 10129", "result": 4, "unit": "µg/mL"}, {"measurement": "MIC", "setting": "[1]; Staphylococcus aureus strain NR 10186", "result": 2, "unit": "µg/mL"}, {"measurement": "MIC", "setting": "[1]; Staphylococcus aureus strain NR 10187", "result": 4, "unit": "µg/mL"}, {"measurement": "MIC", "setting": "[1]; Staphylococcus aureus strain NR 10188", "result": 4, "unit": "µg/mL"}, {"measurement": "MIC", "setting": "[1]; Staphylococcus aureus strain NR 10189", "result": 4, "unit": "µg/mL"}, {"measurement": "MIC", "setting": "[1]; Staphylococcus aureus strain NR 10191", "result": 4, "unit": "µg/mL"}, {"measurement": "MIC", "setting": "[1]; Staphylococcus aureus strain NR 10192", "result": 4, "unit": "µg/mL"}, {"measurement": "MIC", "setting": "[1]; Staphylococcus aureus strain NR 10193", "result": 4, "unit": "µg/mL"}, {"measurement": "MIC", "setting": "[1]; Staphylococcus aureus strain NR 10194", "result": 4, "unit": "µg/mL"}, {"measurement": "MIC", "setting": "[1]; Staphylococcus aureus strain NR 10198", "result": 16, "unit": "µg/mL"}, {"measurement": "MIC", "setting": "Fusobacterium; F. nucleatum HM-75", "result": 16, "unit": "µg/mL"}, {"measurement": "MIC", "setting": "Fusobacterium; F. nucleatum HM-260", "result": ">32", "unit": "µg/mL"}, {"measurement": "MIC", "setting": "Fusobacterium; F. nucleatum HM-992", "result": 16, "unit": "µg/mL"}, {"measurement": "MIC", "setting": "Fusobacterium; F. nucleatum HM-993", "result": 2, "unit": "µg/mL"}, {"measurement": "MIC", "setting": "Fusobacterium; F. nucleatum HM-994", "result": 8, "unit": "µg/mL"}, {"measurement": "MIC", "setting": "Fusobacterium; F. nucleatum HM-995", "result": 16, "unit": "µg/mL"}, {"measurement": "MIC", "setting": "Fusobacterium; F. nucleatum HM-996", "result": 32, "unit": "µg/mL"}, {"measurement": "MIC", "setting": "Fusobacterium; F. nucleatum HM-997", "result": 16, "unit": "µg/mL"}, {"measurement": "MIC", "setting": "Fusobacterium; Fusobacterium sp. HM 42", "result": ">32", "unit": "µg/mL"}, {"measurement": "MIC", "setting": "Fusobacterium; Fusobacterium sp. HM 57", "result": ">32", "unit": "µg/mL"}, {"measurement": "MIC", "setting": "Fusobacterium; Fusobacterium sp. HM-556", "result": 8, "unit": "µg/mL"}, {"measurement": "MIC", "setting": "Fusobacterium; Fusobacterium sp. HM-758", "result": ">32", "unit": "µg/mL"}, {"measurement": "MIC", "setting": "Fusobacterium; Fusobacterium sp. HM-871", "result": 8, "unit": "µg/mL"}, {"measurement": "MIC", "setting": "Fusobacterium; Fusobacterium sp. HM-874", "result": 16, "unit": "µg/mL"}, {"measurement": "MIC", "setting": "Fusobacterium; Fusobacterium sp. HM-875", "result": 8, "unit": "µg/mL"}, {"measurement": "MIC", "setting": "C. perfringens MH310; BB", "result": 0.5, "unit": "µg/mL"}, {"measurement": "MIC", "setting": "C. perfringens MH310; BHI", "result": 1, "unit": "µg/mL"}, {"measurement": "MIC", "setting": "[2]; Clostridiales bacterium HM-84", "result": 0.062, "unit": "µg/mL"}, {"measurement": "MIC", "setting": "[2]; Clostridiales bacterium HM-182", "result": 1, "unit": "µg/mL"}, {"measurement": "MIC", "setting": "[2]; Eubacterium sp. HM-178", "result": 0.5, "unit": "µg/mL"}, {"measurement": "MIC", "setting": "[2]; Lachnospiraceae sp. HM-7", "result": "≦0.031 μg/ml"}, {"measurement": "MIC", "setting": "[2]; Lachnospiraceae sp. HM-150", "result": 0.5, "unit": "µg/mL"}, {"measurement": "MIC", "setting": "[2]; Lachnospiraceae sp. HM-153", "result": 0.5, "unit": "µg/mL"}, {"measurement": "MIC", "setting": "[2]; Lachnospiraceae sp. HM-154", "result": 0.5, "unit": "µg/mL"}, {"measurement": "MIC", "setting": "[2]; Lachnospiraceae sp. HM-157", "result": 0.5, "unit": "µg/mL"}, {"measurement": "MIC", "setting": "[2]; Lachnospiraceae sp. HM-161", "result": 0.25, "unit": "µg/mL"}, {"measurement": "MIC", "setting": "[2]; Lachnospiraceae sp. HM-480", "result": 0.125, "unit": "µg/mL"}, {"measurement": "MIC", "setting": "[2]; Lachnospiraceae sp. HM-558", "result": 0.125, "unit": "µg/mL"}, {"measurement": "MIC", "setting": "[2]; Lachnospiraceae sp. HM-768", "result": "≦0.031 μg/ml"}, {"measurement": "MIC", "setting": "[2]; Lachnospiraceae sp. HM-868", "result": 2, "unit": "µg/mL"}, {"measurement": "MIC", "setting": "[2]; Peptostreptococcaceae sp. HM-766", "result": 1, "unit": "µg/mL"}, {"measurement": "MIC", "setting": "Lactobacillus strains; Lactobacillus crispatus HM-637", "result": 8, "unit": "µg/mL"}, {"measurement": "MIC", "setting": "Lactobacillus strains; Lactobacillus gasseri HM-104", "result": 16, "unit": "µg/mL"}, {"measurement": "MIC", "setting": "Lactobacillus strains; Lactobacillus iners HM-126", "result": 4, "unit": "µg/mL"}, {"measurement": "MIC", "setting": "Lactobacillus strains; Lactobacillus jensenii HM-105", "result": ">32", "unit": "µg/mL"}, {"measurement": "MIC", "setting": "Lactobacillus strains; Lactobacillus jhonsonii HM-643", "result": 32, "unit": "µg/mL"}, {"measurement": "MIC", "setting": "Lactobacillus strains; Lactobacillus reuteri HM-102", "result": 32, "unit": "µg/mL"}, {"measurement": "MIC", "setting": "Lactobacillus strains; Lactobacillus rhamnosus HM-106", "result": ">32", "unit": "µg/mL"}, {"measurement": "MIC", "setting": "Lactobacillus strains; Lactobacillus sp. HM-228", "result": 4, "unit": "µg/mL"}, {"measurement": "MIC", "setting": "Lactobacillus strains; Lactobacillus sp. HM-478", "result": 16, "unit": "µg/mL"}, {"measurement": "MIC", "setting": "Lactobacillus strains; Lactobacillus vaginalis HM-405", "result": 4, "unit": "µg/mL"}, {"measurement": "MIC", "setting": "Enterococcus faecalis; E. faecalis NR 31884", "result": 4, "unit": "µg/mL"}, {"measurement": "MIC", "setting": "Enterococcus faecalis; E. faecalis NR 31885", "result": 4, "unit": "µg/mL"}, {"measurement": "MIC", "setting": "Enterococcus faecalis; E. faecalis NR 31886", "result": 8, "unit": "µg/mL"}, {"measurement": "MIC", "setting": "Enterococcus faecalis; E. faecalis NR 31887", "result": 4, "unit": "µg/mL"}, {"measurement": "MIC", "setting": "Enterococcus faecalis; E. faecalis NR 31888", "result": 8, "unit": "µg/mL"}]}
